Our source for the GI50 and TGI values is PubChem BioAssay (NCI).

Some test systems named below: HS 578T breast; BT-549 breast; KM12 colon; CAKI-1 renal; RXF 393 renal; PC-3 prostate; NCI-H23 lung; CCRF-CEM leukemia; SF-268 CNS; COLO 205 colon.
Experiment in all cases: NCI-60 cell line screen, 48 h

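Five compound concentrations were applied to cells in 96-well plates for 48 hours; endpoints were derived by simple linear interpolation of the resulting dose-response curve. At the GI50, growth is halved. The concentration for full growth arrest is given as TGI.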

As to `O=C(c1nc2ccccc2[nH]1)C1C(c2cccc([N+](=O)[O-])c2)C2CC3CCCCC3N2[C@@]12C(=O)Nc1cc(Cl)ccc12` (stereo not given in full), the GI50 with HS 578T breast was 1630 nM; with BT-549 breast, 1770 nM; in the test with KM12 colon it was 1630 nM; in the test on CAKI-1 renal, 1430 nM; in the test on RXF 393 renal, 1360 nM; in the test with PC-3 prostate it was 1300 nM. The GI50 is 2370 nM in the test with NCI-H23 lung, 3110 nM in the test with CCRF-CEM leukemia and 2110 nM with SF-268 CNS. In addition, the TGI in the test with HS 578T breast is 4410 nM; in the test with BT-549 breast it was 4360 nM; with KM12 colon, 3500 nM; in the test on CAKI-1 renal, 3940 nM; in the test on RXF 393 renal, 2810 nM; in the test with PC-3 prostate, 4400 nM. Also, the TGI in the test with NCI-H23 lung is 5890 nM; in the test on CCRF-CEM leukemia, > 100000 nM; in the test with SF-268 CNS, 5430 nM.

On to `CCOC(=O)Nc1ccc2nc(Sc3ccc(Cl)cc3)sc2c1`, for which the GI50 with HS 578T breast was 7250 nM; in the test on BT-549 breast it was 11600 nM; in the test on KM12 colon, 684 nM; with COLO 205 colon it was 1450 nM; in the test with CAKI-1 renal, 1950 nM; in the test on RXF 393 renal, 2990 nM. For the same compound, the GI50 was 4270 nM with PC-3 prostate, 10200 nM in the test with NCI-H23 lung, 4000 nM in the test with CCRF-CEM leukemia and 8660 nM in the test on SF-268 CNS. Besides, the TGI with HS 578T breast is 97900 nM; in the test on BT-549 breast it was 46300 nM; with KM12 colon, > 58800 nM; in the test on COLO 205 colon, 19000 nM; in the test with CAKI-1 renal, 42000 nM; with RXF 393 renal, 18800 nM. Further, the TGI in the test with PC-3 prostate, in the test on NCI-H23 lung, in the test with CCRF-CEM leukemia and in the test with SF-268 CNS was > 100000 nM in each case.

Regarding `CCOC(=O)CCC(NC(=O)c1ccc(Nc2nc3cc(N)cc(N)c3nc2-c2ccccc2)cc1)C(=O)OCC` (stereo not given), the GI50 in the test with HS 578T breast was 33300 nM; in the test with BT-549 breast, 40100 nM; in the test with KM12 colon it was > 52900 nM; in the test on COLO 205 colon, > 29700 nM; with CAKI-1 renal, > 52600 nM; in the test with RXF 393 renal, 43400 nM. Further, the GI50 with PC-3 prostate was 20500 nM; in the test on NCI-H23 lung it was 30800 nM; in the test on CCRF-CEM leukemia, 5150 nM; in the test on SF-268 CNS, 34200 nM. The TGI was 75000 nM with HS 578T breast; > 100000 nM in the test on BT-549 breast; > 100000 nM in the test with KM12 colon; > 100000 nM in the test on COLO 205 colon; > 100000 nM in the test on CAKI-1 renal; > 92600 nM with RXF 393 renal. Besides, the TGI in the test on PC-3 prostate is 89000 nM; with NCI-H23 lung it was > 74500 nM; in the test with CCRF-CEM leukemia it was > 100000 nM; with SF-268 CNS it was > 100000 nM.

For `Cc1ccc(/C=C2\CN(C(=O)CCN3CCC(=NO)CC3)C/C(=C\c3ccc(C)cc3)C2=O)cc1`, the GI50 in the test with HS 578T breast is 3200 nM; in the test on RXF 393 renal it was 1640 nM; with SF-268 CNS it was 1920 nM. Besides, the TGI in the test with HS 578T breast was > 100000 nM; with RXF 393 renal, 3050 nM; in the test with SF-268 CNS, 4700 nM.

Consider `COC(=O)[C@@H](C)C[C@H](Cc1ccccc1)NC(=O)c1csc([C@@H](C[C@H](C(C)C)N(C)C(=O)[C@@H](NC(=O)CN(C)C)C2CC2)OC(C)=O)n1`, for which the GI50 with HS 578T breast was 26.3 nM; with BT-549 breast, 12.7 nM; in the test with KM12 colon, 21.5 nM; in the test on COLO 205 colon it was 23.1 nM; in the test on CAKI-1 renal, 1300 nM; with PC-3 prostate, 26.7 nM. In addition, the results for the GI50 in the test with NCI-H23 lung, in the test on CCRF-CEM leukemia and in the test with SF-268 CNS were 63.5 nM, 15.4 nM and 37.3 nM, respectively. Further, the TGI is > 16500 nM with HS 578T breast; 857 nM in the test on BT-549 breast; > 10500 nM in the test with KM12 colon; 499 nM with COLO 205 colon; > 16500 nM in the test on CAKI-1 renal; > 16500 nM in the test on PC-3 prostate. Also, the TGI is > 16500 nM in the test with NCI-H23 lung, > 3280 nM in the test with CCRF-CEM leukemia and > 16500 nM with SF-268 CNS.

Turning to `NC(=S)c1cn(C2OC(CO)C(O)C2O)c2ncnc(N)c12` (stereo not given), the GI50 is 254 nM in the test with HS 578T breast; 149 nM in the test with BT-549 breast; 26.2 nM in the test on KM12 colon; 221 nM in the test on CAKI-1 renal; 307 nM with RXF 393 renal; 283 nM in the test with PC-3 prostate. Moreover, the GI50 in the test with NCI-H23 lung was 139 nM; in the test with CCRF-CEM leukemia it was 153 nM; with SF-268 CNS it was 284 nM. Besides, the TGI in the test on HS 578T breast is 2540 nM; in the test with BT-549 breast, 1650 nM; in the test on KM12 colon, 205 nM; in the test on CAKI-1 renal, 2220 nM; with RXF 393 renal it was > 100000 nM; with PC-3 prostate, > 20100 nM. Besides, the results for the TGI in the test on NCI-H23 lung, in the test with CCRF-CEM leukemia and with SF-268 CNS were 677 nM, 507 nM and 3400 nM, respectively.

On to `CO[C@H]1/C=C/C=C/C=C/C[C@H](OC(=O)[C@@H](C)NC(=O)C2CCCCC2)[C@H](C)[C@@H](O)/C(C)=C\CCC2=CC(=O)C=C(NC(=O)C1)C2=O`, for which the GI50 is 119 nM in the test on HS 578T breast; 172 nM in the test on BT-549 breast; 131 nM in the test with KM12 colon; 116 nM in the test on COLO 205 colon; 94.5 nM with RXF 393 renal; 128 nM in the test with PC-3 prostate. The GI50 with NCI-H23 lung was 115 nM; with CCRF-CEM leukemia, 114 nM; in the test with SF-268 CNS, 123 nM. Also, the TGI amounted to 590 nM with HS 578T breast; 1380 nM in the test with BT-549 breast; 10100 nM in the test with KM12 colon; 736 nM in the test with COLO 205 colon; 346 nM in the test with RXF 393 renal; 896 nM with PC-3 prostate. Moreover, the TGI was 812 nM with NCI-H23 lung, > 50000 nM in the test with CCRF-CEM leukemia and 1010 nM in the test with SF-268 CNS.

`Clc1cc(-c2csc(Cl)c2)cs1`: the TGI in the test on HS 578T breast, in the test with KM12 colon, in the test with COLO 205 colon, in the test on CAKI-1 renal, in the test on RXF 393 renal and with PC-3 prostate was > 100000 nM each time. For the same compound, the TGI with NCI-H23 lung, with CCRF-CEM leukemia and in the test with SF-268 CNS was > 100000 nM in each case.

In the case of `Clc1ccc2c(NCCNc3nc(Cl)nc4ccccc34)ccnc2c1`, the GI50 with HS 578T breast is 2260 nM; with BT-549 breast, 1810 nM; in the test on KM12 colon it was 1610 nM; in the test on COLO 205 colon, 863 nM; in the test with RXF 393 renal, 1730 nM; in the test with PC-3 prostate it was 1600 nM. For the same compound, the GI50 in the test on NCI-H23 lung was 1830 nM; in the test with CCRF-CEM leukemia, 331 nM; with SF-268 CNS it was 1890 nM. Besides, the TGI in the test on HS 578T breast was 4960 nM; in the test on BT-549 breast, 3720 nM; in the test on KM12 colon, 3170 nM; in the test on COLO 205 colon, 2320 nM; in the test with RXF 393 renal it was 3370 nM; with PC-3 prostate, 3120 nM. In addition, the figures for the TGI in the test with NCI-H23 lung, in the test with CCRF-CEM leukemia and in the test on SF-268 CNS were 3700 nM, 1040 nM and 3840 nM, respectively.
